Experimental data taken from article PMC8307647, “Bio-Guided Fractionation of Stem Bark Extracts from Phyllanthus muellarianus: Identification of Phytocomponents with Anti-Cholinesterase Activity” (Molecules, 2021).
Like-named read-outs stand apart in the source and are kept apart here.

Tests used:
BuChE from human serum = BuChE from human serum (Homo sapiens, UniProt P06276); experiment: biochemical; type: biochemical; settings: for inhibition at 100 µg/mL: read-out: Inhibition hBuChE at 100 µg/mL % ± SD
BuChE from human serum, sequence (P06276 29-602): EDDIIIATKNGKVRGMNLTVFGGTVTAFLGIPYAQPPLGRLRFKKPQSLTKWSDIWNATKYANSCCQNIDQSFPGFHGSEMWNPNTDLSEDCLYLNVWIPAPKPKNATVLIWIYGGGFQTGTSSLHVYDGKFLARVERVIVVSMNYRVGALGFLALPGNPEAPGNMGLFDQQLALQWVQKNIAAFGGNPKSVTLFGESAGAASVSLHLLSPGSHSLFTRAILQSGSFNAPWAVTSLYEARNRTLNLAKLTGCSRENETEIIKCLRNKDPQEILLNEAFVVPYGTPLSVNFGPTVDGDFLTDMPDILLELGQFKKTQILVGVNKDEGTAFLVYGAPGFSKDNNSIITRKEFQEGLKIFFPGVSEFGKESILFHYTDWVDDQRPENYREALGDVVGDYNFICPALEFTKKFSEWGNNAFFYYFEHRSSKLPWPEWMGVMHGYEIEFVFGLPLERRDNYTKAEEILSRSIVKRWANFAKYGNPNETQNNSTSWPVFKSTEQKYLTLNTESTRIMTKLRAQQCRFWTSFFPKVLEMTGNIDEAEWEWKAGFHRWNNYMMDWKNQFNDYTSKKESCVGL

Human recombinant AChE = Human recombinant AChE (Homo sapiens, UniProt P22303); experiment: biochemical; settings: for inhibition at 100 µg/mL: read-out: Inhibition hAChE at 100 µg/mL % ± SD
Human recombinant AChE, sequence (P22303 32-614): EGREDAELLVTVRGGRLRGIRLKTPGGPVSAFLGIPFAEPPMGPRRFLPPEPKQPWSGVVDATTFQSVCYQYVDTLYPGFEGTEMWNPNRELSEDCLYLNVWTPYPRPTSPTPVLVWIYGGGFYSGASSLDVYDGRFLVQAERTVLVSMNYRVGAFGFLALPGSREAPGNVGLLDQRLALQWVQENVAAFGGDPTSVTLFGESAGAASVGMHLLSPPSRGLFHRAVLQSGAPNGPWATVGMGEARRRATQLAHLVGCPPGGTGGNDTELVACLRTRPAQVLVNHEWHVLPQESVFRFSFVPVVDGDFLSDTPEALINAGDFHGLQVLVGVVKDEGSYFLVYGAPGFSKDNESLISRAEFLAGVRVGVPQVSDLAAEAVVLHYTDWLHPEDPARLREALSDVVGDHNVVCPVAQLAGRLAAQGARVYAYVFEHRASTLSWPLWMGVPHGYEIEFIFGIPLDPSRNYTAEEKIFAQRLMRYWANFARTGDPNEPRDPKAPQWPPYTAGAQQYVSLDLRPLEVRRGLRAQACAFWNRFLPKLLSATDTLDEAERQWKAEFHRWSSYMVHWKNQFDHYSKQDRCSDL

male Swiss mice = test system: male Swiss mice; design: method as in PMID 29186770; settings: single dose 20 mg kg−1 b.w.; cited from earlier work
Aβ1–42 = test system: T1, Aβ1–42; experiment: Inhibition of Aβ1–42 self-aggregation, thioflavin T fluorescence assay; type: biochemical; settings: 1:1 molar ratio with Aβ (50 μM), 30 °C, 24 h
T1 construct: 42-aminoacid long Aβ peptide (Aβ1–42) self-aggregation; purchased Bachem AG, Bubendorf, Switzerland
Description: As reported in the previously published protocol by Bartolini et al., 1,1,1,3,3,3,hexafluoro 2-propanol pre-treated Aβ1–42 samples (Bachem AG, Bubendorf, Switzerland) were solubilized with a AcCN/0.3 mM Na2CO3/250 mM NaOH (48.4/48.4/3.2) mixture to obtain a 500 μM stock solution. Experiments were performed by diluting (final Aβ concentration 50 μM) and incubating the peptide in 10 mM phosphate buffer (pH = 8.0) containing 10 mM NaCl, at 30 °C for 24 h with and without nitidine (50 μM, Aβ/nitidine = 1/1). A blank sample containing nitidine was also prepared. To quantify amyloid fibril formation, the thioflavin T fluorescence method was used. After incubation, samples were diluted to a final volume of 2.0 mL with 50 mM glycine-NaOH buffer (pH 8.5) containing 1.5 μM thioflavin T. A 300-second time scan of fluorescence intensity was carried out (λexc = 446 nm; λem = 490 nm, FP-6200 fluorometer, Jasco Europe, Cremella, Italy), and values at plateau were averaged after subtracting the background fluorescence of 1.5 μM thioflavin T solution. The fluorescence intensities obtained in the absence and in the presence of nitidine were compared and the percent inhibition due to the presence of nitidine was calculated by the following formula: 100 − (100 × IFi/IFo), where IFi and IFo are the fluorescence intensities obtained for Aβ1–42 in the presence and in the absence of nitidine, respectively.

human cholinesterases = settings: cited from earlier work
Aβ = settings: cited from earlier work

Question: With COc1ccc2c3c1O[C@H]1C[C@@H](O)C=C[C@@]31CCN(C)C2 [Galanthamine, reference compound] as the molecule, how does the inhibition at 100 µg/mL (BuChE from human serum) read?
Answer: Its inhibition at 100 µg/mL is over 90%.

Question: Which IC50 (BuChE from human serum; read-out: IC50 hBuChE µM ± SD) does the source give for COc1ccc2c(c1O)-c1c(O)c(OC)cc3c1[C@H](C2)[N+](C)(C)CC3 [Magnoflorine (PC1), Magnoflorine] here?
Answer: Its IC50 is 131 ± 9 µM.

Question: And the inhibition at 100 µg/mL (BuChE from human serum)?
Answer: Its inhibition at 100 µg/mL is 69.9 ± 2.4%.

Question: What about the selectivity index (BuChE from human serum; selective for hBuChE over hAChE) of the same molecule?
Answer: The selectivity index was 8.5.

Question: And the IC50 (Human recombinant AChE; read-out: IC50 hAChE µM ± SD)?
Answer: The IC50 was 1120 ± 83 µM.

Question: What about the inhibition at 100 µg/mL (Human recombinant AChE) of the same molecule?
Answer: Its inhibition at 100 µg/mL is 19 ± 2.9%.

Question: And the “cognitive functions in a passive avoidance test” value (male Swiss mice)?
Answer: The value was “significantly enhanced”.

Question: And the “long-term scopolamine-induced memory impairment” value (male Swiss mice)?
Answer: Its value is “able to reverse”.

Question: With COc1cc2c[n+](C)c3c4cc5c(cc4ccc3c2cc1OC)OCO5 [Nitidine (PC3), 2,3-dimethoxy-12-methyl-[1,3]benzodioxolo[5,6-c]phenanthridin-12-ium] as the molecule, how does the IC50 (BuChE from human serum) read?
Answer: Its IC50 is 6.68 ± 0.13 µM.

Question: And the inhibition at 100 µg/mL (BuChE from human serum)?
Answer: The inhibition at 100 µg/mL was over 90%.

Question: And the “inhibition percentage of Aβ1–42 self-aggregation” value (Aβ1–42)?
Answer: The value was 15.9 ± 1.0.

Question: What about the IC50 (Human recombinant AChE) of the same molecule?
Answer: The IC50 was 5.31 ± 0.5 µM.

Question: And the inhibition at 100 µg/mL (Human recombinant AChE)?
Answer: Its inhibition at 100 µg/mL is over 90%.

Question: What does the source list for COc1ccc2c(c[n+](C)c3c4cc5c(cc4ccc23)OCO5)c1OC [chelerythrine, 1,2-dimethoxy-12-methyl[1,3]benzodioxolo[5,6-c]phenanthridin-12-ium]?
Answer: inhibition of human cholinesterases (human cholinesterases): micromolar inhibitor; inhibition of Aβ self-aggregation (Aβ): significantly inhibit
